These are literature values, as cited in patent US20250288613A1, “COMPOSITIONS AND METHODS TARGETING SAT1 FOR ENHANCING ANTI-TUMOR IMMUNITY DURING TUMOR PROGRESSION” (THE BRIGHAM AND WOMEN’S HOSPITAL, INC., priority 2022, published 2025).

The target in this data set is human spermidine/spermine acetyltransferase (SSAT) (Homo sapiens, UniProt P21673). Conditions: competitive inhibition; spermidine as substrate.
human spermidine/spermine acetyltransferase (SSAT), sequence (P21673 whole entry): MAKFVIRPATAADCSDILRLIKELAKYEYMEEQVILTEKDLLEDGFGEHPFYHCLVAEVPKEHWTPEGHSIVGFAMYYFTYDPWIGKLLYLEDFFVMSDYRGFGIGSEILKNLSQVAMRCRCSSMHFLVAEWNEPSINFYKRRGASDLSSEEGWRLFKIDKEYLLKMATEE

The term Ki denotes the dissociation constant of the complex between target and ligand, obtained from inhibition or displacement. For the molecule `N=C(N)c1ccc(/N=N/Nc2ccc(C(=N)N)cc2)cc1` [berenil, 4,4′-(1-Triazene-1,3-diyl)bis(benzenecarboximidamide)], the Ki was 2000 nM.

`N=C(N)c1ccc(OCCCCCOc2ccc(C(=N)N)cc2)cc1` [Pentamidine]: the Ki is 2400 nM.
